Data as given in patent publication US5707798A, “Identification of ligands by selective amplification of cells transfected with receptors” (priority 1994, dated 1998).
Like-named read-outs stand apart in the source and are kept apart here. Ends that are not written are not given here.

Experiments:
NIH 3T3 cells = assay: Amplification response in the absence of the indicated target receptor; format: cell-based, mouse; conditions: absence of the ligand's target receptor
Procedure: FIG. 16 illustrates the maximal ligand-induced responses of the indicated receptors, as assayed using cotransfected cultures using a Multiple Receptor Format similar to that described in FIG. 11. […] Cells were incubated in wells of a 96 well plate for 4 days with each ligand. Maximal responses were calculated by fitting the data to a model of a single mass-action site.

m5 muscarinic receptor [1] = molecular target: T1, m5 muscarinic receptor (Homo sapiens, UniProt P08912); format: cell-based; conditions: read-out: negative log Ki (converted)
T1 construct: expressed in transfected cells; host or cells: NIH 3T3 (mouse fibroblasts)
T1 sequence (P08912 1-532): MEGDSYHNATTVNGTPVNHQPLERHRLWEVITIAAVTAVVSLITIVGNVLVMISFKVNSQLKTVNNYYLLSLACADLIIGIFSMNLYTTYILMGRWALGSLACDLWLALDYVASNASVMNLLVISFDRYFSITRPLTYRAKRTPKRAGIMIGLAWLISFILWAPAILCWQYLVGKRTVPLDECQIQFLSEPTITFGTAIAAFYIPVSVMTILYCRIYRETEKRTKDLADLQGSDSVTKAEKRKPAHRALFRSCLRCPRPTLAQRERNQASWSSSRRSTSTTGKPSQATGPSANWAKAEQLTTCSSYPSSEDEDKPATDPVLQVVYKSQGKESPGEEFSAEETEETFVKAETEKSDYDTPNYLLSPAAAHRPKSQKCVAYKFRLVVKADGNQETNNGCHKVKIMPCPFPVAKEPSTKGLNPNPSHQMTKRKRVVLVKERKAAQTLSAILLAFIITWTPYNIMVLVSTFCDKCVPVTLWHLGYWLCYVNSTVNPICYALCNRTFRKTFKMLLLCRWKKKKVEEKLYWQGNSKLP

m1 muscarinic receptor [2] = molecular target: T2, m1 muscarinic receptor (Homo sapiens, UniProt P11229); assay: cell-based
T2 sequence (P11229 1-460): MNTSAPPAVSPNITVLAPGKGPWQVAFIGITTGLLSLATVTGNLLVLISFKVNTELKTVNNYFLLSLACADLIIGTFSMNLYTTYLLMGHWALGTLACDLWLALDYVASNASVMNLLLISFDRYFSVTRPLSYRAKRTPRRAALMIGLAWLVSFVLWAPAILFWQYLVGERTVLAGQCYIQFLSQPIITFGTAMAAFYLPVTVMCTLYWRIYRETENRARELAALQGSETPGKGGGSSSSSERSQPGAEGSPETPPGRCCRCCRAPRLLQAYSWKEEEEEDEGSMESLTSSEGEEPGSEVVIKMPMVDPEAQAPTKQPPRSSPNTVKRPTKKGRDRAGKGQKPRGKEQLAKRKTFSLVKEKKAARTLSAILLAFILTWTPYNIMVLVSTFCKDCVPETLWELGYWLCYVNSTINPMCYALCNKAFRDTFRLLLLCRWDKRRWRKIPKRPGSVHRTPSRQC

[3] = molecular target: T3, alpha 2 C10 adrenergic receptor (Homo sapiens, UniProt P08913); format: cell-based; conditions: α2-C10, Table 3
T3 construct: expressed in transfected cells; host or cells: NIH 3T3 (mouse fibroblasts)
T3 sequence (P08913 1-465): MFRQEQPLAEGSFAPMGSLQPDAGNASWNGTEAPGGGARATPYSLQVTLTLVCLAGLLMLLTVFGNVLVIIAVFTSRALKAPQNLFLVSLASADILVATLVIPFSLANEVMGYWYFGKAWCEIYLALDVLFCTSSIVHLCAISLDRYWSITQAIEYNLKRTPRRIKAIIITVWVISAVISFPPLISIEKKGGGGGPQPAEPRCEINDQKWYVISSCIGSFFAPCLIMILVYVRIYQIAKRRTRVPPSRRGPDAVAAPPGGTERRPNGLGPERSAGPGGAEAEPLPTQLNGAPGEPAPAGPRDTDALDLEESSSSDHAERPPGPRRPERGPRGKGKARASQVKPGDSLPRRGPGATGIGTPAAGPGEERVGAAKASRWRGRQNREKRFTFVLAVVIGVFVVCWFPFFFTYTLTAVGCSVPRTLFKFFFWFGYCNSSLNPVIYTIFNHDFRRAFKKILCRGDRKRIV

[4] = molecular target: T4, alpha 2 C4 adrenergic receptor (Homo sapiens, UniProt P18825); format: cell-based; conditions: α2-C4, Table 3; for Max Response: relative to other ligands at the receptor
T4 construct: expressed in transfected cells; host or cells: NIH 3T3 (mouse fibroblasts)
T4 sequence (P18825 1-462): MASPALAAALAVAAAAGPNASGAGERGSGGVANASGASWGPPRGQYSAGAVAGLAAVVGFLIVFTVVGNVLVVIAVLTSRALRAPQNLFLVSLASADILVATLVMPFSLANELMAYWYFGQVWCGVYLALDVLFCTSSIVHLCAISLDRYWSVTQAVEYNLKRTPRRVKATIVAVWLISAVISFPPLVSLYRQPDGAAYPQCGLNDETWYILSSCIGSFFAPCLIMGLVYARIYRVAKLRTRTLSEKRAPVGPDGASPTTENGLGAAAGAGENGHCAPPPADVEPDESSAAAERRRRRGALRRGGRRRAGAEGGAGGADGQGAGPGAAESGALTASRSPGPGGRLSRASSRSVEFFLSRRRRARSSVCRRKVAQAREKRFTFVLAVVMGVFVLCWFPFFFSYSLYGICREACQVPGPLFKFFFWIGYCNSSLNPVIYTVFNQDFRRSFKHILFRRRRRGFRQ

[5] = molecular target: T5, alpha 2 C2 adrenergic receptor (Homo sapiens, UniProt P18089); format: cell-based
T5 sequence (P18089 1-450): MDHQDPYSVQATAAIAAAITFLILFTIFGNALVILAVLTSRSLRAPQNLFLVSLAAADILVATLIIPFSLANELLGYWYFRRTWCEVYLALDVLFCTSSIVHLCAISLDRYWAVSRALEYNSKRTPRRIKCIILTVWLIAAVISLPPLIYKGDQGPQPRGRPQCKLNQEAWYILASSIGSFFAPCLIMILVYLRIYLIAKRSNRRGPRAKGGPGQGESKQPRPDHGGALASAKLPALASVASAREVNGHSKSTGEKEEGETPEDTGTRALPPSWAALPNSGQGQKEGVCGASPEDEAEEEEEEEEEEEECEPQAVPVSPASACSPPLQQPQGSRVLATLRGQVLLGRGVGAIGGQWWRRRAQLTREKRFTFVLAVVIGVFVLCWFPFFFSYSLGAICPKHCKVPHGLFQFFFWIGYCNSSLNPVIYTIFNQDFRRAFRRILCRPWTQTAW

m2 muscarinic receptor = molecular target: T6, m2 muscarinic receptor (Homo sapiens, UniProt P08172); assay: cell-based; format: cell-based
T6 construct: expressed in transfected cells; host or cells: NIH 3T3 (mouse fibroblasts)
T6 sequence (P08172 1-466): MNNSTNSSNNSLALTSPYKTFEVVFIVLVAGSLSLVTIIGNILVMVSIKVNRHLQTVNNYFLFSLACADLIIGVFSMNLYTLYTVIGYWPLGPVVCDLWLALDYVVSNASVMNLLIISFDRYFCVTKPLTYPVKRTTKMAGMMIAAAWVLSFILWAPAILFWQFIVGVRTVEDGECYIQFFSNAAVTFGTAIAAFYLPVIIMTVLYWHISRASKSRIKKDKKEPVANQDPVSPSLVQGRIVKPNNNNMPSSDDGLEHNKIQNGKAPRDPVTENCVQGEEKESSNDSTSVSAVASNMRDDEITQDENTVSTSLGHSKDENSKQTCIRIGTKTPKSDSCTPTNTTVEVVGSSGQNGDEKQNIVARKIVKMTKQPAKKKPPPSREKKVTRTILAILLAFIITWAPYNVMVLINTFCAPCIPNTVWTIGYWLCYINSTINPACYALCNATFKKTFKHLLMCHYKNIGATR

m1 muscarinic receptor [6] = molecular target: T2, m1 muscarinic receptor; assay: cell-based; format: cell-based; design: expressed in transfected cells; host or cells: NIH 3T3 (mouse fibroblasts); conditions: for Emax: read-out: % Max
[7] = tested on: Glutamate metabatropic receptor; format: cell-based
m3 muscarinic receptor [8] = molecular target: T7, m3 muscarinic receptor (Homo sapiens, UniProt P20309); assay: cell-based
m4 muscarinic receptor [9] = molecular target: T8, m4 muscarinic receptor (Homo sapiens, UniProt P08173); assay: cell-based
T8 sequence (P08173 1-479): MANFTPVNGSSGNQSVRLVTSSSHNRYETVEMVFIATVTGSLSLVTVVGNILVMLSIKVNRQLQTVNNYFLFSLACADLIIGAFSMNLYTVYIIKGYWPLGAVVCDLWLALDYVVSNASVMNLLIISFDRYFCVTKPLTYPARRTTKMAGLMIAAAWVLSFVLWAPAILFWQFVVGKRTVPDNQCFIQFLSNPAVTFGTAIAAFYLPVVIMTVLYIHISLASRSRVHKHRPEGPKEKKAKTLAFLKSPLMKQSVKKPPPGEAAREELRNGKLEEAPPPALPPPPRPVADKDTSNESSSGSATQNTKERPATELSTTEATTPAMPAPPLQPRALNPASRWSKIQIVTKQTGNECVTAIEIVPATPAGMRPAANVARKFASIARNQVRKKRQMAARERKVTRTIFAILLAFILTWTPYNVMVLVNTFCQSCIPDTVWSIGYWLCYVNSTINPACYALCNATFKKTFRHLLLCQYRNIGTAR

m5 muscarinic receptor [10] = molecular target: T1, m5 muscarinic receptor; format: cell-based; conditions: for Emax: read-out: % Max
m4 muscarinic receptor [11] = molecular target: T8, m4 muscarinic receptor; assay: cell-based; conditions: read-out: % Max
m3 muscarinic receptor [12] = molecular target: T7, m3 muscarinic receptor; assay: cell-based; design: expressed in transfected cells; host or cells: NIH 3T3 (mouse fibroblasts); conditions: for Emax: read-out: % Max
m4 muscarinic receptor [13] = molecular target: T8, m4 muscarinic receptor
Insulin receptor = format: cell-based
[14] = tested on: trk A receptors (NGF receptor); conditions: only when transfected with trk A; cited from earlier work
trk C receptor = conditions: data not shown

T7 sequence (P20309 whole entry): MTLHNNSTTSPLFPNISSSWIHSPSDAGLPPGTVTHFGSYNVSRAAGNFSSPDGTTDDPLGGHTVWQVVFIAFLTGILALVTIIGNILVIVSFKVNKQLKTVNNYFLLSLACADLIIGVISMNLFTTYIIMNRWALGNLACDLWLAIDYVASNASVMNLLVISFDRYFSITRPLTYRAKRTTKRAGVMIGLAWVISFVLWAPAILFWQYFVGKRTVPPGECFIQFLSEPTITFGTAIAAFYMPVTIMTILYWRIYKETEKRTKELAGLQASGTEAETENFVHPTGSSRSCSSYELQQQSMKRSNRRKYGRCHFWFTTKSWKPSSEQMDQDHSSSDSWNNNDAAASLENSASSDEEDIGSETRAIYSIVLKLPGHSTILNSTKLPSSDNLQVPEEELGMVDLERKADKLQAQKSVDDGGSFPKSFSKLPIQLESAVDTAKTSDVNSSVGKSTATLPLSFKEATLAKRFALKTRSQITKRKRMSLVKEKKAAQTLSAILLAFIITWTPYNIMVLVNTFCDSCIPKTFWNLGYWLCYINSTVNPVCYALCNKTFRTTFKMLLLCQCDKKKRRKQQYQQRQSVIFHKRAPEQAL

O=C(O)CCC/C=C\C[C@@H]1[C@@H](/C=C/[C@@H](O)COc2cccc(C(F)(F)F)c2)[C@H](O)C[C@@H]1O (racemic) [Fluprostenol]
induction of responses (NIH 3T3 cells): unable to induce responses

C[N+]1(C)CCC(OC(=O)C(c2ccccc2)c2ccccc2)CC1 [4-DAMP]
Ki (m5 muscarinic receptor [1]): 1 nM
Ki (m1 muscarinic receptor [2]): 2.51 nM

C=CCN1CCc2nc(N)sc2CC1 [BHT 920]
EC50 [3]: > 10000 nM
EC50 [4]: > 10000 nM

CCN1CCc2nc(N)oc2CC1 [BHT 933]
EC50 [3]: > 10000 nM
EC50 ([5]; α2-C2, Table 3): > 10000 nM

Cc1cccc([C@H](C)c2cnc[nH]2)c1C [Dexmedetomidine]
EC50 [5]: 2 nM

CNC[C@H](O)c1ccc(O)c(O)c1 [Epinephrine]
Max Response [4]: +

C[N+](C)(C)CC#CCOC(=O)Nc1cccc(Cl)c1 [McN A-434]
EC50 (m2 muscarinic receptor; m2 + Gq-i5, Table 1A, read-out: EC50): 1500 ± 600 nM
% Max (m2 muscarinic receptor; nih 3t3 cells): 108 ± 7%
EC50 (m1 muscarinic receptor [6]; m1, Table 1A, read-out: EC50): 1100 ± 200 nM
% Max (m1 muscarinic receptor [6]; nih 3t3 cells): 43 ± 2%

COc1nc(C)nc(Cl)c1N=C1NCCN1 [Moxonidine]
Max Response [4]: +

Cc1cc(C(C)(C)C)c(O)c(C)c1CC1=NCCN1 [Oxymetazoline]
Max Response [4]: +

N[C@@H](Cn1oc(=O)[nH]c1=O)C(=O)O [Quisqualate]
EC50 ([7]; Table 2, read-out: Ligand EC50): 2400 nM
Rmax ([7]; relative to other clones): +

C1COC(NC(C2CC2)C2CC2)=N1 [Rilmenidine]
Max Response [4]: +

Brc1c(NC2=NCCN2)ccc2nccnc12 [UK 14,304]
Max Response [4]: +

COc1ccccc1CNCCCCCCNCCCCCCCCNCCCCCCNCc1ccccc1OC [methocrtramine]
Ki (m5 muscarinic receptor [1]): > 1000 nM
Ki (m1 muscarinic receptor [2]): 501 nM
Ki (m3 muscarinic receptor [8]): > 1000 nM
Ki (m4 muscarinic receptor [9]): 398 nM

C[C@@H]1O[C@H](C[N+](C)(C)C)C[C@H]1O [muscarine]
Emax (m5 muscarinic receptor [10]): 86%
Emax (m4 muscarinic receptor [11]): 69 ± 2%
Emax (m1 muscarinic receptor [6]): 84 ± 4%
Emax (m3 muscarinic receptor [12]): 84 ± 6%

O=C1CCCN1CC#CCN1CCCC1 [oxotremorine]
Emax (m2 muscarinic receptor; read-out: % Max): 100 ± 5%
EC50 (m2 muscarinic receptor; read-out: EC50): 19 ± 10 nM
EC50 (m2 muscarinic receptor; read-out: Ligand EC50): 19 ± 10 nM
EC50 (m5 muscarinic receptor [10]; m5, Table 1A, read-out: EC50): 55 ± 1 nM
EC50 (m5 muscarinic receptor [10]; m5, Table 2, read-out: Ligand EC50): 55 ± 1 nM
Emax (m5 muscarinic receptor [10]): 74 ± 2%
EC50 (m4 muscarinic receptor [13]): 33 ± 14 nM
EC50 (m4 muscarinic receptor [13]; read-out: Ligand EC50): 33 ± 14 nM
Emax (m4 muscarinic receptor [11]): 102 ± 3%
Emax (m1 muscarinic receptor [6]): 75 ± 10%
EC50 (m1 muscarinic receptor [6]; read-out: EC50): 390 ± 130 nM
EC50 (m1 muscarinic receptor [6]; read-out: Ligand EC50): 390 ± 130 nM
Emax (m3 muscarinic receptor [12]): 66 ± 5%
EC50 (m3 muscarinic receptor [12]; read-out: EC50): 210 ± 60 nM
EC50 (m3 muscarinic receptor [12]; read-out: Ligand EC50): 210 ± 60 nM

Clc1cc(I)cc(Cl)c1NC1=NCCN1 [p-I-Clonidine]
Max Response [5]: +

Nc1cc(Cl)c(NC2=NCCN2)c(Cl)c1 [p-NH2-Clonidine]
Max Response ([5]; α2-C2, Table 3, relative to other ligands at the receptor): +

CNC[C@H](O)c1cccc(O)c1 [phenylephrine]
induction of responses (NIH 3T3 cells): unable to induce responses

Insulin
EC50 (Insulin receptor; Table 2, read-out: Ligand EC50): 0.08 ± 0.08 nM
Rmax (Insulin receptor; relative to other clones): +

Nerve growth factor [NGF]
growth stimulation [14]: stimulates growth
induction of amplification responses (trk C receptor): not able to induce amplification responses

endothelin-3 [ET-3]
induction of responses (NIH 3T3 cells): unable to induce responses

substance P (RPKPQQFFGLM; ends and bridges not checked; UniProt P20366 58-68, looked up)
induction of responses (NIH 3T3 cells): unable to induce responses
